Results reported in patent publication US20180258381A1, “BIO-LAMINA BIOREACTORS AND METHODS OF MAKING AND USING THE SAME” (Oregon State University, priority 2015, published 2018).

Assays:
[1] = tested on: M. trichosporium OB3b culture; assay: Column packed with culture immobilized in alginate beads, cPOH inhibition; format: cell-based
Method: In parallel with the BLP reactor runs, the response of methane consumption and MeOH production in a column packed with M. trichosporium OB3b culture immobilized in alginate beads (0.4 mg cell protein total) was evaluated. The column was incubated under batch conditions for 18 hours with cPOH, then quickly flushed with ˜10 pore volumes of dilute growth media, before dilute media flow containing ˜200 μM CH4 was begun at a rate of 41 ml/hour (FIG. 38). Over the course of day 1, 80±10% of influent CH4 was consumed and MeOH accumulated with an efficiency (MeOH produced/CH4 consumed) of 94±21%. […] To see if MeOH production could be renewed, the column was again exposed to cPOH for 18 hours as previously described. On days 3, 4, and 7, 66±8% of influent CH4 was consumed and MeOH accumulated with an efficiency of >90%.

[2] = tested on: methanol dehydrogenase (MDH); assay: MeOH consumption of fresh sMMO expressing culture exposed to cPOH; format: cell-based, M. trichosporium OB3b; conditions: highest concentration of cPOH added with 1 mM MeOH
Method: In the absence of CH4, sMMO expressing OB3b in alginate beads were incubated 18 h with cyclopropane (CP, FIG. 36A) and produced an oxidized product hypothesized to be cyclopropanol (cPOH). cPOH is more water soluble than CP, enabling removal of CP by purging the headspace with air (FIG. 36B). Work is progressing on the identification cPOH by mass spec analysis. […] Inhibition of MDH was confirmed by exposing fresh non-inhibited sMMO expressing M. trichosporium OB3b to cPOH (FIG. 36D).
In the absence of cPOH 1 mM MeOH was consumed <10 minutes, but when cPOH was added with 1 mM MeOH there was a concentration dependent effect on the rate of MeOH consumption. At low and medium cPOH concentrations, significant amounts of MeOH were consumed before the initial time points could be taken.

OB3b cells = assay: Long term packed column experiment, cyclopropanol inhibition; format: cell-based, M. trichosporium OB3b
Method: In some examples, OB3b cells were harvested from the chemostats described herein to make alginate beads for a long term packed column experiment. Total cell mass within the column was 300 mg with and the column void space was 6 mL. The flow rates of a methane solution (2 mg/L) were varied and the inlet and outlet concentrations were measured for a methane consumption efficiency curve shown in FIG. 45A.
An increase in methane consumption with an increase in residence time was observed. The column was then inhibited with cyclopropanol (1/10 dilution) for 18 hours. A flow rate of 2 mL/min was used for all further testing. Methane consumption decreased from 0.21 μmol/hr to 0.15 μmol/hr after the inhibition, while 0.13 μmol/hr of methanol was produced. After 24 hours methanol production decreased to 0.06 μmol/hr and methane consumption increased to 0.24 μmol/hr. The inhibition process was repeated for 18 hours and methanol production evaluated under the same operating conditions. The maximum methanol production rates lasted about 3 hours, and then declined, while methane consumption was maintained. Overall, the column responded similarly to two inhibitions ran at constant flow for two weeks with little problem.

M. trichosporium OB3b = assay: Chemostat inhibition with cyclopropanol; format: cell-based
Excerpt: In one embodiment, a seven-liter chemostat was used to grow a culture of M. trichosporium OB3b without copper present, therefore expressing sMMO. The temperature-controlled jacketed reactor has multiple input and output lines for gas and liquid feed, a paddle stirrer for agitation, sensors for continuous monitoring of pH and DO, and metered oxygen delivery tied to a DO concentration set-point. The reactor was inoculated with a dilute culture of M. trichosporium OB3b and operated in batch mode for approximately one month before continuous fluid flow was established. […] A second two-liter chemostat growing a culture of M. trichosporium OB3b with copper present, expressing pMMO, also was used.
Cyclopropanol was added under batch-flow conditions with no methane being fed to the reactor to limit methanol competition for MDH and increase the effectiveness of the inhibitor. Methanol accumulated in solution for about 24 hours and then was slowly washed from the reactor (FIG. 35A). The microbial methanol production rate in the chemostat peaked within 24 hours at about 0.5 mg/(L*h) and was essentially zero after two days (FIG. 35B).
The activity results remained stable at the above values for 5 days after inhibition with cyclopropanol present throughout. […] Complete shutdown of methane oxidation within the chemostat most likely occurred due to very successful inhibition of MDH resulting in a loss of reducing power needed for MMO operation. […] By day 8, methane utilization and oxygen uptake were restored in the chemostat and the biomass concentration increased back to pre-inhibition values. […] The chemostat inhibition experiment is being conducted again with modifications to the concentration of inhibitor and conditions of inhibition in attempt to produce conditions for continuous methanol production and to maintain higher methane oxidation rates throughout.
In the first two embodiments an estimated 75 μg/L cyclopropanol (cPOH) was added to the chemostat. Methanol production by M. trichosporium OB3b within the chemostat lasted less than 12 hours. Following initial methanol production, cell growth ceased and cells began washing out of the reactor. Once signs of washout were observed formate was added to the chemostat to a concentration of 10 mM. […] In subsequent attempts at methanol production, smaller cyclopropanol additions were used in an attempt to inhibit the organisms enough to produce methanol without disrupting their ability to grow fast enough to avoid washout. […] In each case, a peak in cumulative methanol production was reached followed by a decline indicating the recovery of the methanol oxidation capability of the culture (FIG. 43). […] Since the cyclopropanol concentrations used in these examples were below the detection limit of the analytical method, the cyclopropanol fate in the chemostat is uncertain in some embodiments.
Throughout each experiment specific oxygen utilization rate (SOUR) tests were conducted with samples from the chemostat as indicators of MDH and methane monooxygenase (MMO) activity (FIGS. 44A and 44B). Methanol SOURs indicate essentially immediate inhibition of MDH activity, although it took up to 1 hour to reach a minimum in activity. Significant methane inhibition is indicated in the methane SOURs and it occurs with essentially the same magnitude and time scale as the methanol SOUR results. The recovery of MDH indicated by SOUR tests correlated with the observed reduction in cumulative methanol production in the chemostat. […] A peak in DO concentration was reached first followed by a peak in pH and lastly methanol concentration. The increase in pH and DO is expected to be the result of incomplete methane oxidation and a subsequent reduction in CO2 production.

MDH = assay: cPOH inhibition of MDH of culture immobilized in alginate beads; format: cell-based
Excerpt: The examples described above can be used to determine optimal cPOH concentrations and exposure time to maximize MeOH production. In some examples, cPOH inhibition is rapid and irreversible. In some examples, cPOH inhibited MDH of culture immobilized in alginate beads in less than 100 seconds, and MDH inhibition was maintained after alginate beads were rinsed to remove cPOH.

[3] = day 1, after 18 hours with cPOH
[4] = days 3, 4, and 7, after second 18 hours cPOH exposure
[5] = after inhibition with cyclopropanol (1/10 dilution) for 18 hours, flow 2 mL/min
[6] = post-inhibition microbial activity sampling

Q: With `OC1CC1` [cPOH, cyclopropanol] as the molecule, how does the “MeOH accumulation efficiency (MeOH produced/CH4 consumed)” value [1, 3] read?
A: 94±21%

Q: And the “influent CH4 consumed” value [1, 3]?
A: 80±10%

Q: What about the MeOH accumulation ([1]; day 2) of the same molecule?
A: no MeOH accumulated

Q: And the “influent CH4 consumed” value ([1]; day 2)?
A: 67±6%

Q: What about the “MeOH accumulation efficiency (MeOH produced/CH4 consumed)” value [1, 4] of the same molecule?
A: > 90%

Q: And the “influent CH4 consumed” value [1, 4]?
A: 66±8%

Q: What about the “effect on rate of MeOH consumption” value [2] of the same molecule?
A: significantly slowed MeOH consumption

Q: And the methane consumption (OB3b cells; 24 hours after inhibition)?
A: 0.24 µmol/h

Q: And the methanol production (OB3b cells; 24 hours after inhibition)?
A: 0.06 µmol/h

Q: What about the methane consumption (OB3b cells; [5]) of the same molecule?
A: 0.15 µmol/h

Q: And the methanol produced (OB3b cells; [5])?
A: 0.13 µmol/h

Q: What about the “duration of methanol production” value (M. trichosporium OB3b; addition of 2-8 mg/L cyclopropanol) of the same molecule?
A: 2 to 6 h

Q: And the “effects on pH and DO concentrations within the chemostat” value (M. trichosporium OB3b; cPOH additions to reach 0.5 μg/L or lower)?
A: no discernable effects

Q: And the “duration of methanol production within the chemostat” value (M. trichosporium OB3b; estimated 75 μg/L cyclopropanol added)?
A: less than 12 hours

Q: What about the “peak microbial methanol production rate in the chemostat” value (M. trichosporium OB3b; peaked within 24 hours after cyclopropanol addition) of the same molecule?
A: about 0.5 mg/(L*h)

Q: And the “reduction in batch methane oxidation rate” value (M. trichosporium OB3b; [6])?
A: 94%

Q: What about the “reduction in ethylene oxidation rate” value (M. trichosporium OB3b; [6]) of the same molecule?
A: 97%

Q: And the “reduction in formate-dependent oxygen uptake rate” value (M. trichosporium OB3b; [6])?
A: 20-25%

Q: And the “reduction in methanol-dependent oxygen uptake rate” value (M. trichosporium OB3b; [6])?
A: 95%

Q: What about the “time to inhibit MDH” value (MDH) of the same molecule?
A: less than 100 seconds
